Values quoted from earlier work as cited in US20220192993A1, “DOSAGE FORMS AND METHODS OF PREPARATION AND USE THEREOF” (Willow Bark Brands, Inc., priority 2019, published 2022).

System: brain alpha wave activity
Conditions: reported effect, 'testing shows'

## CCNC(=O)CC[C@H](N)C(=O)O [L-Theanine]
  brain alpha wave activity: L-Theanine increases
